Experiments:
CK1α [1] = molecular target: T1, CK1α (Homo sapiens, UniProt P48729+Q96SW2); test: Western blot of CK1α levels in cereblon (CRBN) knock-out HEK293 cell line; assay type: cell-based; conditions: 0.1, 1, 10 μM, 24 hours
T1 construct: HEK293 clonal lines with CRISPR KI HiBiT tag on CSNK1A1; host or cells: HEK293 clonal line, CRISPR knock-in HiBiT at the CSNK1A1 locus, stably expressing LgBiT
Protocol: (§1) FIG. 1 depicts effects of compound 101 on CK1α levels in an HEK293 cell line in comparison to effects of compound 101 on CK1α levels in a cereblon (CRBN) knock-out HEK293 cell line.
(§2) HEK293 cell line is purchased from ATCC (CRL-1573). HEK293 CRBN knock out (k/o) cell line (B2) is generated internally using CRISPR/Cas9 method and clonally expanded. Cells are plated at 2×10^5 cells per well in 6-well tissue culture plates (VWR) in 2 ml of DMEM media (Gibco) containing 10% FBS (Gibco), and incubated for 16 hours at 37° C., 5% CO2. Compounds are added to final concentration of 0.1 μM, 1 μM, 10 μM (DMSO concentration is kept constant at 0.1%), following incubation at 37° C., 5% CO2 for additional 24 hours. Cell lysis is performed using RIPA buffer (Pierce) containing Halt™ Protease Inhibitor Cocktail (ThermoFisher Scientific). Lysates are boiled at 95° C. for 10 minutes and 12 μg of protein lysate per sample is resolved by SDS-PAGE using 12% gels (BioRad) and transferred to nitrocellulose membrane (BioRad). Membranes are blocked using LI-COR blocking buffer (LI-COR) at room temperature for 1 hour, followed by overnight incubation with rabbit anti-CK1α (Abcam ab206652), rabbit anti-CRBN (Sigma HPA045910) and mouse anti-α-tubulin (Sigma T9026) antibodies at 4° C. Secondary antibodies (LI-COR) are added for a hour at room temperature, followed by imaging with LI-COR imaging system Odyssey® CLx.

CK1α [2] = molecular target: T1, CK1α; test: Western blot of CK1α levels in HEK293 cell line; assay type: cell-based; conditions: cereblon present, 0.1, 1, 10 μM, 24 hours
Protocol: as §1, §2

T1 sequence (P48729 whole entry): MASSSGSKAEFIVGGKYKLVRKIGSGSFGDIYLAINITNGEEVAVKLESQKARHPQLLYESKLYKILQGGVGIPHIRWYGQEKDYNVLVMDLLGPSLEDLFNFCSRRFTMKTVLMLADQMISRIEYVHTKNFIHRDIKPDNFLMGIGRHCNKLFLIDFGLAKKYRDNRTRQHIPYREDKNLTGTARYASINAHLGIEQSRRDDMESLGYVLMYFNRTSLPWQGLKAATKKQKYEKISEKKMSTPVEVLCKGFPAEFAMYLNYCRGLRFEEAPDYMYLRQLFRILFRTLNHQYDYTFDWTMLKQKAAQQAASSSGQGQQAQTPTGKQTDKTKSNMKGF
T1 sequence (Q96SW2 whole entry): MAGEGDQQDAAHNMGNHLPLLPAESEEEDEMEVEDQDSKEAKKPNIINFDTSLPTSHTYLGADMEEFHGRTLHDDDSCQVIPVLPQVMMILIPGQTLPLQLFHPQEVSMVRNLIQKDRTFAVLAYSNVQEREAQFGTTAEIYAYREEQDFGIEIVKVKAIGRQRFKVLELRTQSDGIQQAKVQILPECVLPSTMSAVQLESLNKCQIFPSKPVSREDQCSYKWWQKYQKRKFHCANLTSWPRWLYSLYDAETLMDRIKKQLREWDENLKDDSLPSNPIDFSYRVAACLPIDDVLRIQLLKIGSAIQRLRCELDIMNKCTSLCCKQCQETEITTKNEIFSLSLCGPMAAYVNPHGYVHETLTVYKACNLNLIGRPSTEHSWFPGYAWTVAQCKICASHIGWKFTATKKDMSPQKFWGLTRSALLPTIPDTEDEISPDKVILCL
T1 sequence (Q16531 whole entry partner): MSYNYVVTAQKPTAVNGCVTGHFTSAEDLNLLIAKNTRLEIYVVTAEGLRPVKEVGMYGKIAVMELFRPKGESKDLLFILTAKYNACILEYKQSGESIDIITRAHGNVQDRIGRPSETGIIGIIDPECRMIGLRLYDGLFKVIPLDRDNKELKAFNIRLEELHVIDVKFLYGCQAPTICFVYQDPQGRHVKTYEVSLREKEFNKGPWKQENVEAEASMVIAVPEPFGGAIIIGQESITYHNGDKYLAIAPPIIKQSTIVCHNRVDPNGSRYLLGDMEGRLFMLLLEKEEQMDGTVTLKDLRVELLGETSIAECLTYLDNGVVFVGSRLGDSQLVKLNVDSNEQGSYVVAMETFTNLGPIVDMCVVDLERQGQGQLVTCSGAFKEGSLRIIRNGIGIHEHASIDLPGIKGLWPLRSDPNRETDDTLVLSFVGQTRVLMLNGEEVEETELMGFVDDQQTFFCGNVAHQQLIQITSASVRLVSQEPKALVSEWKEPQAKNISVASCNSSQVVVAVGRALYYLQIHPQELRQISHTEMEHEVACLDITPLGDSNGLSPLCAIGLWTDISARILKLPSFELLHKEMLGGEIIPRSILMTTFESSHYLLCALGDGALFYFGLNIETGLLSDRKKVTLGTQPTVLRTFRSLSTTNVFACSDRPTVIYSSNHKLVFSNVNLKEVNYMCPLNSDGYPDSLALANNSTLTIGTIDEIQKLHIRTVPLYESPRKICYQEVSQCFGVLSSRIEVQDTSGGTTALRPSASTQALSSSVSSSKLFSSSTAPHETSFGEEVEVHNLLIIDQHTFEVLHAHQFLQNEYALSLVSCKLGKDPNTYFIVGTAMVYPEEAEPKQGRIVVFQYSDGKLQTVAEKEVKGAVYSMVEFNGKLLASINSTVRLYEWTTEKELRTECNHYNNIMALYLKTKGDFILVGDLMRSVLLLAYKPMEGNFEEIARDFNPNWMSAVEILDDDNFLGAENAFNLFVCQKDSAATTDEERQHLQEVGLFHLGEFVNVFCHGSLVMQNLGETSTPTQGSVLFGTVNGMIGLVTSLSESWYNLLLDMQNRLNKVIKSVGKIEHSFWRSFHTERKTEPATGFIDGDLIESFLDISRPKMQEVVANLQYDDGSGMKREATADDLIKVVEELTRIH

effect on CK1α levels (Western blot, FIG. 1) (CK1α [1]): no effect on CK1α levels
effect on CK1α levels (Western blot, FIG. 1) (CK1α [2]): decreases CK1α levels
Compound: O=C1CCC(N2Cc3cc(N4CCN(c5ccccc5)C4=O)ccc3C2=O)C(=O)N1 (centres unmarked) [Compound 101, 3-(1-oxo-5-(2-oxo-3-phenylimidazolidin-1-yl)isoindolin-2-yl)piperidine-2,6-dione]

Source: patent US20250115581A1, “SUBSTITUTED PIPERIDINES AS CK1A DEGRADERS” (Monte Rosa Therapeutics, Inc., priority 2022, published 2025)
